Several values for one entry are separate records, joined by “and”; a condition that tells them apart may be missing. Equal values may be shown once.
Legend:
[1] = ketoprofen-induced gastric damage in rats; assay type: in vivo, rat (male Wistar); conditions: ketoprofen 100 mg/kg oral; 5 h after dosing; 15 rats
Experimental: In this example a dose of ketoprofen (100 mg/kg) was administered to rats to induce gastric damage and guar gum was coadministered to determine its effect. Both the ketoprofen and guar gum were administered as an aqueous mixture.
Seventy-five male Wistar rats each approximately 6 weeks of age and ranging in weight from 206 g to 233 g were housed 5 to a cage in suspended polypropylene cages with wire grid floors. The rats had access to tap water and were fed a standard certified laboratory rodent diet (RM1(E)SQC), ad libitam. Lighting in the animal room was controlled to give 12 hours light (0700-1900 hours) and 12 hours dark each day. The room temperature and relative humidity controls were set at 21° C.±3° C. and 50% ±15% respectively.
After an acclimatization period of 3 days following the day of arrival, the animals were randomized into groups according to bodyweight using random numbers tables so that the group mean bodyweights were approximately equal. Including the day of randomization, there were a further 3 days of acclimatization prior to dosing. […]
Five hours after dosing, the rats were sacrificed by carbon dioxide asphyxiation and the stomachs removed. Each stomach was opened along the greater curvature and examined macroscopically for damage in the glandular portion; any damage was subjectively scored using the following system: […]

[2] = aspirin-induced gastric ulcer model in rats (ulcer severity grade); assay type: in vivo, rat (Sprague-Dawley male)
Experimental: Tests were conducted in the aspirin-induced gastric ulcer model. Rats were dosed as indicated below. Five hours after dosing, rats were sacrificed and stomachs were examined for the presence of gastric lesions. A total of 6 treatments were tested. Each treatment was tested in 12 rats. The treatments were prepared immediately prior to use. The aspirin treatments were prepared by suspending 2.00 grams of fine mesh aspirin in 100 ml water (plus 0.1% Tween 80) and then adding the specified amount (i.e. 0, 0.10, 1.00, or 5.00 grams) of Guar gum. The Guar gum 5.0% alone treatment was prepared as above except the aspirin was omitted. All dosing preparations were warmed to about 100° C.; uniformity of suspensions was ensured by constant stirring. Sprague-Dawley male rats, 148 to 190 grams, were individually-housed under standard Vivarium conditions. After arrival, rats were allowed to acclimate in house for a minimum of 5 days before initiation of testing. Rats were fasted (water ad libitum) for 18 hours prior to testing. Treatments 1-6, assigned to rats in random fashion, were administered orally (gavage) at the rate of 10 ml/kilogram (kg). Five hours after treatment, each rat was sacrificed by carbon dioxide inhalation. The abdomen was opened. The stomach was removed, opened along the greater curvature, examined for the presence of lesions, and assigned a severity grade according to the following scale: 0 No lesions 1<5 lesions, at least 1 lesion<2 mm 2<5 lesions, at least 1 lesion>2 mm 3 5 to 10 lesions, all<2 mm 4 5 to 10 lesions, at least 1 lesion>2 mm 5 >10 lesions, all<2 mm 6 >10 lesions, at least 1 lesion>2 mm In order to eliminate bias and reduce subjective variation, all ulcer grading in the study was performed in single-blind fashion by the same well-experienced grader. For each stomach, the severity score was recorded. Data are expressed using the absolute values. […] Statistical significance of differences between means were determined by analysis of variance followed by Neumann-Kuels multiple comparisons test.

Compound	Group mean score for gastric damage [1]	Ulcer Grade, mean ([2]; Table 5, severity scale 0-6, 5 h after oral gavage, 10 ml/kg, 12 rats)	stomachs with ulcer severity scores of 5 or greater ([2]; number of rats of 12)	mean ulcer severity (mean ± s.e.m.) ([2]; severity scale 0-6, 5 h after dosing)
CC(C(=O)O)c1cccc(C(=O)c2ccccc2)c1 (stereo not shown) [Ketoprofen]	13.1	–	–	–
CC(=O)Oc1ccccc1C(=O)O [Aspirin, acetylsalicylic acid]	–	5.8	11 of the 12	5.8 and 5.75±0.18

Reference: US5993860A, “NSADI delivery employing a powdered hydrocolloid gum obtainable from higher plants” (Venture Lending, priority 1997, dated 1999)
